The target of series [1] is T1, KRasG12C (Homo sapiens, UniProt P01116, G12C).
T1 construct: biotin (biotinylated); made in house
As to the kind of experiment: KRasG12C functional assay (HTRF/FRET nucleotide exchange and Raf RBD binding). The series is classed as biochemical. The settings on record: samples incubated for 4 hrs, FRET readout, single experiment or average of two or more. As to the method:
All enzyme and substrate solutions were prepared in assay buffer containing 20 mM HEPES (pH 7.5), 5 mM MgCl2, 150 mM NaCl, and 0.01% Tween 20. […] In a separate mix 20 nM GST-Raf Ras binding domain (GST-Raf RBD, purified in house) and 4 μg/ml anti-GST XL665 antibody (Cisbio) was prepared in assay buffer containing 50 mM Potassium Fluoride and 0.05 mg/ml BSA and equilibrated for 4 hours before adding 0.6 μM Guanosine 5′-[γ-thio]triphosphate (GTPγS, Sigma) and 0.08 μM SOS (purified in house). 5 μl of the GST-RAF RBD mix was then dispensed into each well of the assay plate. […] This is detected simultaneously via the specific binding interaction between active GTPγS KRas^G12C with GST-Raf RBD which brings the europium and XL665 into close proximity enabling an increased FRET signal to be detected on a Pherastar (BMG) plate reader equipped with the HTRF filter module. […] IC50 values were calculated from normalised dose-response response FRET data curve fitted in Genedata screener (Basel, Switzerland).
Background: TR-FRET usually uses a lanthanide donor and a delayed reading to cut background.

The subject of series [2] is MDR1 (Pgp) and BCRP. As to the kind of experiment: Blood brain barrier penetrant assessment: efflux ratio in MDCK_MDR1_BCRP cells. The series is classed as in vitro ADME. To be noted: human, MDCK cells doubly transfected with MDR1 (Pgp) and BCRP, ratio of 2 or less = potential for good BBB penetration, read-out: Hu MDCK-MDR1-BCRP (0.1 uM) Mean Efflux Ratio. As to the method: In order to evaluate blood brain barrier (BBB) penetrant properties the efflux properties of compounds according to the specification was measured in cells transfected with the major efflux pumps expressed in the endothelial cells of the BBB. The assessment of efflux properties was performed using Madin-Darby Canine Kidney (MDCK) cells doubly transfected with MDR1 (Pgp) and BCRP. The transfected cell line, MDCK_MDR1_BCRP, thus expresses the two main efflux pumps that actively serve to exclude transit of compounds across the BBB and the efflux ration from these cell can be measured as described in the literature (Durant et al, Sci. Adv. 2018; eeat:1719). A compound that has an efflux ratio of 2 or less as measured by this technique is identified as having the potential for good BBB penetrant properties (Colclough et al, Drug Disc. Today 2019; 24(5), 1067-73).

The target in series [3] is T1, KRasG12C. As to the kind of experiment: KRasG12C mass spectrometry adducting assay. The series is classed as binding. The settings on record: test compound final concentration 10 μM, 4 hours reaction with 4 μM GDP loaded biotinylated KRasG12C. As to the method: Enzyme solutions were prepared in assay buffer containing 20 mM HEPES (pH 7.5), 5 mM MgCl2, and 150 mM NaCl. […] The plate was sealed before reading on a Xevo G2 QTOF (Waters) and Acquity LC system (Waters). 10 μl of sample was injected onto a Xbridge BEH300; C4; 3.5 um; 2.1×50 mm column (Waters) running a 3 minute gradient. Blank samples were run in between each test sample.
Data was analysed in Mass Lynx software (Waters), the Total ion count (TIC) trace was used and the eluted protein peak data combined. Using the combined spectrum the data was deconvoluted using MaxEnt1 method. The peak area for apo-protein KRas^G12C (APO) and KRAS+relative cmpd mass (adduct) were measured, and a percentage adduct was calculated using the following calculation: Percent adduct=100*(area of adduct peak/(sum of APO+adduct peaks).
The data from this mass spectrometry adducing assay is presented in the column labelled KRasG12C M.S. Binding Mean adduct % in Table A below.

The mark [4] stands for this setting: KRasG12C functional assay IC50, GDP loaded biotinylated KRasG12C.
Where [5] appears, read: GDP loaded biotinylated KRasG12C, read-out: KRasG12C functional assay IC50.

Like-named read-outs stand apart in the source and are kept apart here.

One may read the IC50 as the concentration at which inhibition is half-maximal.

T1 sequence (P01116 1-188 isoform P01116-2 G12C): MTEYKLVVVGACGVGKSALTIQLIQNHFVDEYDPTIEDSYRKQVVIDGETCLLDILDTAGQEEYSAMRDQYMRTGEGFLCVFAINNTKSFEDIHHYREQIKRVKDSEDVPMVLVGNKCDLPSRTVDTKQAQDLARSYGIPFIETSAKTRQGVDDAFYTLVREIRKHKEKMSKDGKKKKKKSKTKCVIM

Consider `C=CC(=O)N1CCN2Cc3cc(Cl)c(-c4c(O)cccc4Cl)c(F)c3OC[C@H]2C1` (single isomer, unassigned) [Example 84], for which the IC50 in series [1] (setting [4]) came out at 0.025 µM. The efflux ratio at 0.1 uM in series [2] came out at 0.6. Turning to `C=CC(=O)N1CCN2Cc3ccc(-c4c(C)ccc5[nH]ncc45)c(Cl)c3OC[C@@H]2C1` (single isomer, unassigned) [Example 3], in series [1] (setting [4]), the IC50 was 1.41 µM. Further, in series [3], the “KRasG12C M.S. Binding Mean adduct %” value is listed as 80%. In the case of `C#Cc1cc2c(c(Cl)c1-c1c(O)cccc1Cl)OC[C@H]1CN(C(=O)C=C)CCN1C2` [Example 78, 1-[(12aR)-10-Chloro-9-(2-chloro-6-hydroxyphenyl)-8-ethynyl-3,4,12,12a-tetrahydro-6H-pyrazino[2,1-c][1,4]benzoxazepin-2(1H)-yl]prop-2-en-1-one], the IC50 in series [1] (setting [5]) came out at 0.0193 µM. The efflux ratio at 0.1 uM in series [2] came to 0.7. As to `C=CC(=O)N1CCN2Cc3cc(C#CC)c(-c4c(O)cccc4Cl)c(Cl)c3OC[C@H]2C1` (single isomer, unassigned) [Example 109], the IC50 in series [1] (setting [5]) amounted to 0.014 µM. Further, the efflux ratio at 0.1 uM in series [2] worked out at 0.9.

Consider `C#Cc1cc2c(c(Cl)c1-c1c(O)cccc1F)OC[C@H]1CN(C(=O)C=C)CCN1C2` (single isomer, unassigned) [Example 80], for which the IC50 in series [1] (setting [5]) is 0.083 µM. For the same compound, the efflux ratio at 0.1 uM in series [2] was determined as 0.7. In series [1] (setting [4]), `C#Cc1cc2c(c(F)c1-c1c(O)cccc1Cl)OC[C@H]1CN(C(=O)C=C)CCN1C2` (single isomer, unassigned) [Example 76] returned an IC50 of 0.0186 µM. Also, the efflux ratio at 0.1 uM in series [2] stood at 0.8.

In turn, `C=CC(=O)N1CCN2C(=O)c3ccc(-c4c(C)ccc5[nH]ncc45)c(Cl)c3OC[C@H]2C1` (single isomer, unassigned) [Example 8] came in with an IC50 in series [1] (setting [4]) of 0.698 µM. In addition, in series [3], the “KRasG12C M.S. Binding Mean adduct %” value turned out to be 91%. Turning to `C=CC(=O)N1CCN2Cc3c(F)c(F)c(-c4c(O)cccc4Cl)c(Cl)c3OC[C@H]2C1` (single isomer, unassigned) [Example 92], the IC50 in series [1] (setting [5]) stood at 0.053 µM. For the same compound, in series [2], the efflux ratio at 0.1 uM stood at 0.7. The corresponding values for `[2H]C([2H])([2H])Oc1nc2c(c(Cl)c1-c1c(O)cccc1Cl)OC[C@H]1CN(C(=O)C=C)CCN1C2` (single isomer, unassigned) [Example 112] are 0.044 µM and 1.5. `C#Cc1c(F)c2c(c(F)c1-c1c(O)cccc1Cl)OC[C@H]1CN(C(=O)C=C)CCN1C2` (single isomer, unassigned) [Example 95]: in series [1] (setting [5]), the IC50 is 0.019 µM. In addition, the efflux ratio at 0.1 uM in series [2] turned out to be 0.9. Turning to `C=CC(=O)N1CCN2Cc3cc(F)c(-c4c(O)cccc4C(F)(F)F)c(F)c3OC[C@H]2C1` (single isomer, unassigned) [Example 49], the IC50 in series [1] (setting [5]) amounted to 0.065 µM. Besides, in series [2], the efflux ratio at 0.1 uM was determined as 0.9. In series [1] (setting [4]), `C=CC(=O)N1CCN2Cc3cc(C#CC)c(-c4c(O)cccc4Cl)c(F)c3OC[C@H]2C1` (single isomer, unassigned) [Example 86] had an IC50 of 0.015 µM. The efflux ratio at 0.1 uM in series [2] was 0.9. Take `C#Cc1c2c(cc(F)c1-c1c(C)cccc1O)CN1CCN(C(=O)C=C)C[C@@H]1CO2` (single isomer, unassigned) [Example 65]: in series [1] (setting [5]), the IC50 turned out to be 0.182 µM. For the same compound, the efflux ratio at 0.1 uM in series [2] is 1.4. Turning to `C=CC(=O)N1CCN2Cc3ccc(-c4c(C)ccc5[nH]ncc45)c(Cl)c3OC[C@H]2C1` (single isomer, unassigned) [Example 10], the IC50 in series [1] (setting [4]) is 0.332 µM. Besides, the “KRasG12C M.S. Binding Mean adduct %” value in series [3] came out at 97%.

As for `C=CC(=O)N1CCN2Cc3cc(F)c(-c4c(O)cccc4Br)c(F)c3OC[C@H]2C1` (single isomer, unassigned) [Example 59], the IC50 in series [1] (setting [5]) turned out to be 0.032 µM. For the same compound, in series [2], the efflux ratio at 0.1 uM turned out to be 0.8. The like results for `C=CC(=O)N1CCN2Cc3cc(F)c(-c4c(O)cccc4C(F)F)c(F)c3OC[C@H]2C1` (single isomer, unassigned) [Example 53] were, in that order, 0.66 µM and 1.5. For the compound `C=CC(=O)N1CCN2Cc3cc(Cl)c(-c4c(C)cccc4O)c(F)c3OC[C@H]2C1` (single isomer, unassigned) [Example 61], the IC50 in series [1] (setting [5]) came out at 0.0277 µM. Further, in series [2], the efflux ratio at 0.1 uM was found to be 0.3.

`C#Cc1cc2c(c(C)c1-c1c(O)cccc1Cl)OC[C@H]1CN(C(=O)C=C)CCN1C2` (single isomer, unassigned) [Example 90]: the IC50 in series [1] (setting [5]) was determined as 0.054 µM. Moreover, the efflux ratio at 0.1 uM in series [2] is 0.6.

With `C=CC(=O)N1CCN2Cc3cc(Cl)c(-c4c(O)cccc4F)c(Cl)c3OC[C@H]2C1` (single isomer, unassigned) [Example 27], the half-maximal inhibitory concentration (IC50) in series [1] (setting [5]) stood at 0.024 µM. For the same compound, the efflux ratio at 0.1 uM in series [2] came out at 0.8.

Take `C=CC(=O)N1CCN2Cc3cc(F)c(-c4c(O)cccc4Cl)c(Cl)c3OC[C@H]2C1` (single isomer, unassigned) [Example 35]: in series [1] (setting [5]), the IC50 stood at 0.042 µM. The efflux ratio at 0.1 uM in series [2] was 1.8. With `C=CC(=O)N1CCN2Cc3c(c(Cl)c(-c4c(O)cccc4F)c4cnn(C)c34)OC[C@H]2C1` (single isomer, unassigned) [Example 72], the IC50 in series [1] (setting [5]) came to 0.133 µM. On to `C=CC(=O)N1CCN2Cc3c(c(Cl)c(-c4c(O)cccc4F)n(C)c3=O)OC[C@H]2C1` (single isomer, unassigned) [Example 67], for which the IC50 in series [1] (setting [5]) is 0.81 µM. Regarding `C=CC(=O)N1CCN2C(=O)c3ccc(-c4c(C)ccc5[nH]ncc45)c(Cl)c3NC[C@H]2C1` (single isomer, unassigned) [Example 32], in series [1] (setting [5]), the IC50 is 64.8 µM. As to `C=CC(=O)N1CCN2C(=O)c3c(O)cc(-c4c(O)cccc4F)c(Cl)c3OC[C@H]2C1` [Example 6, (12aR)-10-chloro-9-(2-fluoro-6-hydroxyphenyl)-7-hydroxy-2-(prop-2-enoyl)-1,2,3,4,12,12a-hexahydro-6H-pyrazino[2,1-c][1,4]benzoxazepin-6-one], the IC50 in series [1] (setting [5]) is 0.103 µM.

On to `C=CC(=O)N1CCN2C(=O)c3cc(F)c(-c4c(O)cccc4F)c(Cl)c3OC[C@H]2C1` (single isomer, unassigned) [Example 11], for which, in series [1] (setting [5]), the IC50 came to 0.067 µM. In addition, the efflux ratio at 0.1 uM in series [2] is 0.5. Regarding `C=CC(=O)N1CCN2C(=O)c3cc(C)c(-c4c(O)cccc4F)c(Cl)c3OC[C@H]2C1` (single isomer, unassigned) [Example 24], the IC50 in series [1] (setting [5]) was 43.8 µM. Turning to `C=CC(=O)N1CCN2Cc3cc(C#CCN(C)C)c(-c4c(O)cccc4Cl)c(F)c3OC[C@H]2C1` (single isomer, unassigned) [Example 102], in series [1] (setting [5]), the IC50 is 0.028 µM.

With `C=CC(=O)N1CCN2Cc3c(Cl)nc(-c4c(O)cccc4F)c(Cl)c3OC[C@H]2C1` [Example 68, 1-[(6aR)-1,4-Dichloro-3-(2-fluoro-6-hydroxyphenyl)-6a,7,9,10-tetrahydro-12H-pyrazino[2,1-c]pyrido[3,4-f][1,4]oxazepin-8(6H)-yl]prop-2-en-1-one], in series [1] (setting [5]), the IC50 worked out at 0.79 µM. Regarding `C#Cc1nc2c(c(Cl)c1-c1c(O)cccc1Cl)OC[C@@H]1CN(C(=O)C=C)CCN1C2` (single isomer, unassigned) [Example 88], in series [1] (setting [5]), the IC50 worked out at 0.013 µM.

`C=CC(=O)N1CCN2Cc3ccc(-c4c(C)ccc5[nH]ncc45)c(Cl)c3OC[C@H]2C1` (single isomer, unassigned) [Example 9] had an IC50 in series [1] (setting [4]) of 26 µM. Take `C=CC(=O)N1CCN2Cc3c(c(Cl)c(-c4c(O)cccc4F)c4cnn(C)c34)OC[C@H]2C1` (single isomer, unassigned) [Example 73]: the IC50 in series [1] (setting [5]) is 23 µM. On to `C=CC(=O)N1CCN2Cc3cc(Cl)c(-c4c(C)cccc4O)c(F)c3OC[C@H]2C1` (single isomer, unassigned) [Example 60], for which the IC50 in series [1] (setting [5]) worked out at 15.9 µM.

These data come from patent publication US12410187B2, “Fused tricyclic compounds useful as anticancer agents” (ASTRAZENECA AB, priority 2019, dated 2025).
